What all share (assay type): cell-based
What all share (settings): read-out: IC50

Experiment [1] addresses Sodium- and chloride-dependent GABA transporter 1 (Mus musculus, UniProt P31648). The experiment in a line: Inhibition of mouse mGAT1 expressed in HEK293 cells assessed as inhibition of [3H]GABA uptake after 3 mins incubation by TopCount microplate scintillation counting analysis.
The target in experiment [2] is T1, GABA transporter 2 (Mus musculus, UniProt P31651).
T1 sequence (P31651 whole entry): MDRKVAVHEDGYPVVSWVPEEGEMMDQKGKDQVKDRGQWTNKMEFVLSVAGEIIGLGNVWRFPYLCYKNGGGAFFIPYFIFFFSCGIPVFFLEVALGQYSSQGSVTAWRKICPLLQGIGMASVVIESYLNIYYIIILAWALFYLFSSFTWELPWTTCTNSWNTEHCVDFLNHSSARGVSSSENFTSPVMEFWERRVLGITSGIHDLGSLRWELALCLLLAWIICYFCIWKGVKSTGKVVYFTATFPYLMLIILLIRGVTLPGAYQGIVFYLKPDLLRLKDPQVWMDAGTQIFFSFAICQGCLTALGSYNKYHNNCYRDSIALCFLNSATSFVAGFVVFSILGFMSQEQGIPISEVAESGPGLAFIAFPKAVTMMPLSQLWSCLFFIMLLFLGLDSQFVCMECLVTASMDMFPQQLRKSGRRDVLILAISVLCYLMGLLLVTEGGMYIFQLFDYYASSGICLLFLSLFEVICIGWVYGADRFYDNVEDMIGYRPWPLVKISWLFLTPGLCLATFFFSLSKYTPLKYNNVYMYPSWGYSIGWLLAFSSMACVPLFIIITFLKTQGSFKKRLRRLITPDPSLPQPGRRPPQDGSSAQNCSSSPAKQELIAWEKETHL
The experiment in a line: Inhibition of mouse mGAT2 expressed in HEK293 cells assessed as inhibition of [3H]GABA uptake after 3 mins incubation by TopCount microplate scintillation counting analysis.

For experiment [3], the target named is T2, GABA transporter 3 (Mus musculus, UniProt P31649).
T2 sequence (P31649 whole entry): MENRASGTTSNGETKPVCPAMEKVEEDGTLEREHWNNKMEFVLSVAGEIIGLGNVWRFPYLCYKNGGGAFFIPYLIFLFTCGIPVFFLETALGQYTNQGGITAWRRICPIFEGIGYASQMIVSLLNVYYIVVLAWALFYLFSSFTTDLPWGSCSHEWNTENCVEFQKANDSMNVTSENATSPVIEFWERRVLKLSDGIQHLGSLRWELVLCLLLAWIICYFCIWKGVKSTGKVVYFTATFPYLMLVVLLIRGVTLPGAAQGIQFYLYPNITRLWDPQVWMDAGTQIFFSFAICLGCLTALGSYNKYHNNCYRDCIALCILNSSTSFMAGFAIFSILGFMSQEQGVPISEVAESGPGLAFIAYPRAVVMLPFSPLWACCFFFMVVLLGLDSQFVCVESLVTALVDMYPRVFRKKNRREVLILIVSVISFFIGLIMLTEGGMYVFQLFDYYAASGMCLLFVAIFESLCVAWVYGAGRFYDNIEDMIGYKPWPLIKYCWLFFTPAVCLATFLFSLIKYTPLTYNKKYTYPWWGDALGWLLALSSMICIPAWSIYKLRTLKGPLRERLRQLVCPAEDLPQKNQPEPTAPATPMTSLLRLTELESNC
The experiment in a line: Inhibition of mouse mGAT3 expressed in HEK293 cells assessed as inhibition of [3H]GABA uptake after 3 mins incubation by TopCount microplate scintillation counting analysis.

Experiment [4] addresses T3, GABA transporter 4 (Mus musculus, UniProt P31650).
T3 sequence (P31650 whole entry): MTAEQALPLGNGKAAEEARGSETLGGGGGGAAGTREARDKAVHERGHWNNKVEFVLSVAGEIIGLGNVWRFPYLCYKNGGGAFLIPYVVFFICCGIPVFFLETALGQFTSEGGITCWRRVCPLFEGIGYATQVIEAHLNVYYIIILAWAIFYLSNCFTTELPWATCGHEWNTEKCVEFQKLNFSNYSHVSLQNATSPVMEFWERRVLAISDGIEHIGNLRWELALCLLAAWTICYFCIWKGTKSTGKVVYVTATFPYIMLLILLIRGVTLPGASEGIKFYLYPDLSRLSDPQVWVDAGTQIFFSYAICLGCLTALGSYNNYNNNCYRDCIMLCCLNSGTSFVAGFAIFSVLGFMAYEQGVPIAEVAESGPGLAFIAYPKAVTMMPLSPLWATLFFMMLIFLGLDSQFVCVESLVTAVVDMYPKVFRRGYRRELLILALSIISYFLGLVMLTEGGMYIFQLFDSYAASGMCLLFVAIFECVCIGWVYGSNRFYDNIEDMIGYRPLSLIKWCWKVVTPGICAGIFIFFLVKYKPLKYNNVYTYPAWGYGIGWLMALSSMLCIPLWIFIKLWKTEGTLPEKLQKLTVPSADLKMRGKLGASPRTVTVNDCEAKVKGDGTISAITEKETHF
The experiment in a line: Inhibition of mouse mGAT4 expressed in HEK293 cells assessed as inhibition of [3H]GABA uptake after 3 mins incubation by TopCount microplate scintillation counting analysis.

Take `Cc1ccsc1C(=CCCN(C)[C@H]1CCCC[C@@H]1C(=O)O)c1sccc1C`: the IC50 in experiment [1] came to 264 µM; in experiment [2], 62.2 µM; in experiment [3], 478 µM; in experiment [4], 263 µM.

With `Cc1ccsc1C(=CCCN(C)[C@@H]1CCCC[C@H]1C(=O)O)c1sccc1C`, the IC50 in experiment [1] came to 194 µM; in experiment [2] it was 133 µM; in experiment [3], 633 µM; in experiment [4], 551 µM.

Regarding `CN(CCON=C(c1ccccc1)c1ccccc1)[C@@H]1CCCC[C@H]1C(=O)O`, the IC50 in experiment [1] was greater than 2000 µM; in experiment [2], 880 µM; in experiment [3] (hek293), greater than 2000 µM; in experiment [4] (hek293) it was greater than 2000 µM.

For the molecule `CN(CCC=C1c2ccccc2CCc2ccccc21)[C@@H]1CCCC[C@H]1C(=O)O` (racemic), the IC50 turned out to be 972 µM in experiment [1], 125 µM in experiment [2], 985 µM in experiment [3] and 844 µM in experiment [4].

Regarding `CN(CCOC(c1ccc(C(F)(F)F)cc1)c1ccc(C(F)(F)F)cc1)[C@@H]1CCCC[C@H]1C(=O)O` (racemic), the IC50 in experiment [1] is 426 µM; in experiment [2], 138 µM; in experiment [3], 433 µM; in experiment [4], 392 µM.

Regarding `Cc1ccsc1C(=CCCN1CCNC(C(=O)O)C1)c1sccc1C` (racemic), the IC50 in experiment [1] is 95.6 µM; in experiment [2], greater than 1000 µM; in experiment [3] it was greater than 1000 µM; in experiment [4] it was greater than 1000 µM.

Regarding `O=C(O)C1CN(CCON=C(c2ccccc2)c2ccccc2)CCN1` (racemic), the IC50 was 216 µM in experiment [1], greater than 1000 µM in experiment [2], greater than 1000 µM in experiment [3] and greater than 1000 µM in experiment [4].

`O=C(O)C1CN(CCOC(c2ccc(C(F)(F)F)cc2)c2ccc(C(F)(F)F)cc2)CCN1` (racemic): the IC50 in experiment [1] is 83 µM; in experiment [2], 401 µM; in experiment [3], greater than 1000 µM; in experiment [4], 1760 µM.

Turning to `CCN1CCNC(C(=O)O)C1` (racemic), the IC50 in experiment [1], in experiment [2], in experiment [3] and in experiment [4] was greater than 1000 µM in each case.

As to `Cc1ccsc1C(=CCCN1CCNCC1C(=O)O)c1sccc1C` (racemic), the IC50 in experiment [1] was 195 µM; in experiment [2], 1400 µM; in experiment [3] it was 1660 µM; in experiment [4], 883 µM.

With `O=C(O)C1CNCCN1CCON=C(c1ccccc1)c1ccccc1` (racemic), the concentration for half-maximal inhibition (IC50) in experiment [1], in experiment [2], in experiment [3] and in experiment [4] was greater than 1000 µM throughout.

For the molecule `CCN1CCNCC1C(=O)O` (racemic), the IC50 in experiment [1], in experiment [2], in experiment [3] and in experiment [4] was greater than 1000 µM throughout.

On to `Cc1ccsc1C(=CCCN(C)C1CCCC=C1C(=O)O)c1sccc1C` (stereo in doubt; (E1)-6a), for which the IC50 was 170 µM in experiment [1], 76.7 µM in experiment [2], 765 µM in experiment [3] and 468 µM in experiment [4].

Regarding `Cc1ccsc1C(=CCCN(C)C1CCCC=C1C(=O)O)c1sccc1C` (stereo in doubt; (E2)-6a), the IC50 in experiment [1] is 403 µM; in experiment [2] it was 67 µM; in experiment [3], 584 µM; in experiment [4], 413 µM.

As to `CNCCC=C1c2ccccc2CCc2ccccc21` [NORTRIPTYLINE], the IC50 in experiment [1] came out at 389 µM; in experiment [2], 171 µM; in experiment [3], 270 µM; in experiment [4], 249 µM.

A word on the IC50: it is the concentration that gives 50% inhibition.

For the origin of these results see ChEMBL document CHEMBL3399947, “Structure activity relationship of selective GABA uptake inhibitors” (Bioorg Med Chem, 2015).
